According to patent US8765779B2, “Tricyclic derivatives and their pharmaceutical use and compositions” (Cephalon, Inc., priority 2009, dated 2014):
Structures can show the parent of a compound that is named as a salt.

Target: T1, human 5-HT6 receptor (Homo sapiens, UniProt P50406)
T1 construct: host or cells: CHO-K1 cells, stably transfected; membranes prepared in house
Assay: Human 5-HT6 Receptor Binding Assay ([3H]LSD displacement, scintillation beads)
Conditions: membranes of CHO-K1 cells with recombinant human 5-HT6, 4 nM [3H]LSD; Table 1, class symbols; read-out: h5-HT6 (Ki)

T1 sequence (P50406 whole entry): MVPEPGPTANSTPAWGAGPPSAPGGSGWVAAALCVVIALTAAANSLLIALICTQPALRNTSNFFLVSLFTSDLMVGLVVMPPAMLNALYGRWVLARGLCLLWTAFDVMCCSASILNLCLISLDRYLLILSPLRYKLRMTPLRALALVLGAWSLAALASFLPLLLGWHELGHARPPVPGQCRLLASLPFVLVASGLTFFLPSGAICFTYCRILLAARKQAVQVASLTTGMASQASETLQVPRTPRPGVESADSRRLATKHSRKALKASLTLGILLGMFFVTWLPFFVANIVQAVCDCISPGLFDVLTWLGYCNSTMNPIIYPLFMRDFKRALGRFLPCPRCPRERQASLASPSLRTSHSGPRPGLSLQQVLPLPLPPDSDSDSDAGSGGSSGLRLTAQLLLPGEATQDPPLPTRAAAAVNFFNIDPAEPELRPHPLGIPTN

SMILES | Ki
NC(=O)COc1cccc(S(=O)(=O)c2ccc3c(c2)OC2CNCCC32)c1 (stereo not shown) [Example 563] | > 1000 nM
O=S(=O)(c1ccc2c(c1)OC1CNCCC21)c1cccnc1F (stereo not shown) [Example 398] | < 500 nM
CC12CCN(C3CCC3)CC1Oc1ccc(OS(=O)(=O)Cc3ccccc3)cc12 (stereo not shown) [Example 805] | > 1000 nM
CC(=O)NCC1NCCc2c1oc1ccc(S(=O)(=O)c3cccc(F)c3)cc21 (stereo not shown) [Example 531, N-({6-[(3-fluorophenyl)sulfonyl]-1,2,3,4-tetrahydro[1]benzofuro[2,3-c]pyridin-1-yl}methyl)acetamide] | < 500 nM
O=S(=O)(NC1Cc2ccccc2C1)c1ccc2c(c1)C1CCNCC1O2 (stereo not shown) [Example 857] | > 1000 nM
CC12CCNCC1Oc1ccc(OS(=O)(=O)c3cc4ccccc4o3)cc12 (stereo not shown) [Example 765] | 500 to 1000 nM
O=S(=O)(c1ccc2c(c1)OC1CNCCC21)c1cccc(OCC2CCOCC2)c1Cl (stereo not shown) [Example 485] | < 500 nM
Cn1cnc(S(=O)(=O)Oc2ccc3c(c2)OC2CNCCC32)c1 (stereo not shown) [Example 639] | > 1000 nM
O=S(=O)(c1ccc2c(c1)OC1CNCCC21)c1cccc(Cl)c1Cl (stereo not shown) [Example 156] | < 500 nM
CC(C)c1ccc(S(=O)(=O)c2ccc3c(c2)C2CCNCC2O3)cc1 (stereo not shown) [Example 179] | < 500 nM
O=S(=O)(c1ccc(Oc2ccccc2)cc1)c1ccc2oc3c(c2c1)CCNC3 [Example 248] | < 500 nM
O=S(=O)(c1ccc2c(c1)OC1CNCCC21)c1cccc(F)c1F (stereo not shown) [Example 388] | < 500 nM
O=S(=O)(c1ccc2c(c1)OC1CNCCC21)c1cccc2c1OC(F)(F)O2 (stereo not shown) [Example 461] | < 500 nM
Cc1ccc(C)c(S(=O)(=O)Nc2ccc3c(c2)C2CCNCC2O3)c1 (stereo not shown) [Example 820, N-(1,2,3,4,4a,9a-hexahydro[1]benzofuro[2,3-c]pyridin-6-yl)-2,5-dimethylbenzenesulfonamide] | < 500 nM
COCC1(C)NCCc2c1oc1cc(S(=O)(=O)c3cccc(F)c3)ccc21 (stereo not shown) [Example 633] | < 500 nM
O=S(=O)(Oc1ccc2c(c1)C1CCNCC1O2)c1ccc(-c2ccon2)s1 (stereo not shown) [Example 742] | < 500 nM
O=S(=O)(c1cccc(Cl)c1)c1ccc2c3c(oc2c1)CN(CCCO)CC3 [Example 601] | < 500 nM
CC(C)N1CCC2c3ccc(S(=O)(=O)c4ccccc4)cc3OC2C1 (stereo not shown) [Example 608, 7-(phenylsulfonyl)-2-(propan-2-yl)-1,2,3,4,4a,9a-hexahydro[1]benzofuro[2,3-c]pyridine] | < 500 nM
[O-][S+](c1ccc2oc3c(c2c1)CCNC3)c1cc(F)cc(F)c1F (stereo not shown) [Example 443] | > 1000 nM
O=S(=O)(Oc1ccc2c(c1)C1CCNCC1O2)c1ccc(F)cc1F (stereo not shown) [Example 712] | > 1000 nM
O=S(=O)(c1ccc2c(c1)C1CCNCC1O2)c1cccc(Cl)c1Cl (stereo not shown) [Example 176] | < 500 nM
O=S(=O)(c1ccc2c(c1)C1CCNCC1O2)N1CCN(c2ccccc2)CC1 (stereo not shown) [Example 845] | > 1000 nM
CC12CCNCC1Oc1cc(S(=O)(=O)c3ccc(F)cc3)ccc12 (stereo not shown) [Example 356] | 500 to 1000 nM
O=S(=O)(Nc1ccc(Cl)cc1)c1ccc2c(c1)C1CCNCC1O2 (stereo not shown) [Example 836, N-(4-Chlorophenyl)-1,2,3,4,4a,9a-hexahydro[1]benzofuro[2,3-c]pyridine-6-sulfonamide] | > 1000 nM

SMILES | Ki
O=S(=O)(c1ccc2c(c1)C1CCNCC1O2)N1CCc2ccccc21 (stereo not shown) [Example 838] | 500 to 1000 nM
Cc1ccc(S(=O)(=O)c2ccc3c(c2)C2CCNCC2O3)cc1 (stereo not shown) [Example 174] | > 1000 nM
Cc1ccc(S(=O)(=O)Oc2ccc3c(c2)OC2CNCCC32)cc1Cl (stereo not shown) [Example 659] | > 1000 nM
CC12CCNCC1Oc1ccc(OS(=O)(=O)c3cccc4cccnc34)cc12 (stereo not shown) [Example 770] | > 1000 nM
O=S(=O)(c1ccc2c(c1)OC1CNCCC21)c1cccnc1OCC(F)(F)F (stereo not shown) [Example 395] | < 500 nM
O=S(=O)(c1cccc(Cl)c1Cl)c1cccc2c1OC1CNCCC21 (stereo not shown) [Example 338] | < 500 nM
CCCCC1NCCc2c1oc1cc(S(=O)(=O)c3cccc(F)c3)ccc21 (stereo not shown) [Example 506] | < 500 nM
O=S(=O)(c1ccc2c(c1)OCCO2)c1cccc2c1OC1CNCCC21 (stereo not shown) [Example 185] | < 500 nM
O=S(=O)(c1ccc2c3c(oc2c1)[C@@]1(CCOC1)NCC3)c1cc(F)ccc1F (single isomer, unassigned) [Example 109] | < 500 nM
Cc1noc(C)c1S(=O)(=O)Oc1ccc2c(c1)C1CCNCC1O2 (stereo not shown) [Example 703] | > 1000 nM
O=S(=O)(c1ccc2c(c1)OC1CNCCC21)c1ccccc1OCC(F)(F)F (stereo not shown) [Example 421] | < 500 nM
CC(C)C1NCCc2c1oc1ccc(S(=O)(=O)c3cccc(F)c3)cc21 (stereo not shown) [Example 512] | < 500 nM
CC12CCNCC1Oc1ccc(OS(=O)(=O)c3ccc(Oc4ccccc4)nc3)cc12 (stereo not shown) [Example 782] | > 1000 nM
O=S(=O)(c1cccc(Cl)c1)c1ccc2c3c(oc2c1)CN(CC(F)(F)F)CC3 [Example 604] | < 500 nM
O=S(=O)(Oc1ccc2c(c1)OC1CNCCC21)c1csc2ccccc12 (stereo not shown) [Example 665] | < 500 nM
COc1ccc(S(=O)(=O)Nc2ccc3c(c2)C2CCNCC2O3)cc1 (stereo not shown) [Example 821] | > 1000 nM
[O-][S+](c1ccc2oc3c(c2c1)CCNC3)c1cccc(F)c1F (stereo not shown) [Example 442] | > 1000 nM
O=S(=O)(Oc1ccc2c(c1)OC1CNCCC21)c1ccc(-c2cnco2)cc1 (stereo not shown) [Example 672] | < 500 nM
O=S(=O)(c1ccc(F)c(Cl)c1)c1ccc2c3c(oc2c1)CNCC3 [Example 193] | < 500 nM
O=S(=O)(c1cccc(F)c1)c1ccc2c3c(oc2c1)C(CCBr)NCC3 (stereo not shown) [Example 497] | < 500 nM
O=S(=O)(c1cccc(F)c1)c1ccc2c3c(oc2c1)C1(CCOC1)NCC3 (single isomer, unassigned) [Example 52, 7-[(3-fluorophenyl)sulfonyl]-3,4,4′,5′-tetrahydro-2H-spiro[1-benzofuro[2,3-c]pyridine-1,3′-furan]] | < 500 nM
CC(C)Oc1cccc(S(=O)(=O)c2ccc3c4c(oc3c2)C2(CCCOC2)NCC4)c1 (racemic) [Example 23, 7-{[3-(propan-2-yloxy)phenyl]sulfonyl}-3,4,5′,6′-tetrahydro-2H,4′H-spiro[1-benzofuro[2,3-c]pyridine-1,3′-pyran]] | < 500 nM
O=S(=O)(c1ccc(Oc2ccccc2)cc1)c1ccc2c3c(oc2c1)CNCC3 [Example 201] | < 500 nM
O=S(=O)(c1cccc(F)c1)c1ccc2oc3c(c2c1)CCNC3C1CCOC1 (stereo not shown) [Example 516] | < 500 nM

SMILES | Ki
O=S(=O)(Cc1ccccc1)Oc1ccc2c(c1)C1CCNCC1O2 (stereo not shown) [Example 697, 1,2,3,4,4a,9a-hexahydro[1]benzofuro[2,3-c]pyridin-6-yl phenylmethanesulfonate] | > 1000 nM
CC(=O)NCC1(C)NCCc2c1oc1cc(S(=O)(=O)c3cccc(F)c3)ccc21 (stereo not shown) [Example 632, N-({7-[(3-fluorophenyl)sulfonyl]-1-methyl-1,2,3,4-tetrahydro[1]benzofuro[2,3-c]pyridin-1-yl}methyl)acetamide] | < 500 nM
O=S(=O)(c1ccc2c(c1)OC1CNCCC21)c1ccccc1-c1ccccc1 (stereo not shown) [Example 152] | < 500 nM
CN(C)c1cccc(S(=O)(=O)c2ccc3c4c(oc3c2)CNCC4)c1 [Example 347] | < 500 nM
CC1(C)NCCc2c1oc1cc(S(=O)(=O)c3cccnc3N3CCOCC3)ccc21 [Example 368] | < 500 nM
Cc1cc(COc2cccc(S(=O)(=O)c3ccc4c(c3)OC3CNCCC43)c2)no1 (stereo not shown) [Example 565] | < 500 nM
[O-][S+](c1ccc2c(c1)OC1CNCCC21)c1cc(F)ccc1F (stereo not shown) [Example 142] | > 1000 nM
O=S(=O)(c1cc(F)cc(F)c1)c1ccc2c(c1)OC1CNCCC21 (stereo not shown) [Example 164] | < 500 nM
O=S(=O)(c1ccc(Cl)cc1)c1ccc2c(c1)OC1CNCCC21 (stereo not shown) [Example 322] | < 500 nM
CC1NCCc2c1oc1ccc(S(=O)(=O)c3ccc(F)c(F)c3)cc21 (stereo not shown) [Example 284] | < 500 nM
O=S(=O)(c1cccc(F)c1)c1ccc2c3c(oc2c1)C1CCN1CC3 (stereo not shown) [Example 616, 8-[(3-Fluorophenyl)sulfonyl]-1,4,5,10b-tetrahydro-2H-azeto[1,2-a][1]benzofuro[2,3-c]pyridine] | < 500 nM
Cc1cccc([S+]([O-])c2ccc3c(c2)OC2CNCCC32)n1 (stereo not shown) [Example 327] | > 1000 nM
CC12CCNCC1Oc1cc(S(=O)(=O)c3cccc4c3OCCO4)ccc12 (stereo not shown) [Example 468] | < 500 nM
CC(C)Oc1cccc(S(=O)(=O)c2ccc3c(c2)OC2C3CCNC23CCC3)c1 (stereo not shown) [Example 622, 7-{[3-(Propan-2-yloxy)phenyl]sulfonyl}-3,4,4a,9a-tetrahydro-2H-spiro[1-benzofuro[2,3-c]pyridine-1,1′-cyclobutane]hydrochloride] | < 500 nM
O=S(=O)(c1ccccc1)c1ccc2c3c(oc2c1)CN(CCCO)CC3 [Example 595] | < 500 nM
CC1(C)NCCc2c1oc1cc(S(=O)(=O)c3cc[nH]c(=O)c3)ccc21 [Example 366] | < 500 nM
CC(C)Oc1ncccc1[S+]([O-])c1ccc2oc3c(c2c1)CCNC3 (stereo not shown) [Example 446] | < 500 nM
CC(=O)NCC1NCCc2c1oc1cc(S(=O)(=O)c3cccc(Cl)c3)ccc21 (racemic) [Example 539, N-({7-[(3-chlorophenyl)sulfonyl]-1,2,3,4-tetrahydro[1]benzofuro[2,3-c]pyridin-1-yl}methyl)acetamide] | < 500 nM
O=S(=O)(c1cccc(Cl)c1)c1ccc2c3c(oc2c1)C1(CCOC1)NCC3 (stereo not shown) [Example 306] | < 500 nM
COc1c(F)cc(F)cc1S(=O)(=O)c1ccc2c(c1)OC1CNCCC21 (stereo not shown) [Example 458] | > 1000 nM
O=S(=O)(c1cc(F)cc(F)c1)c1ccc2c3c(oc2c1)C1(CCOC1)NCC3 (stereo not shown) [Example 302] | < 500 nM
O=S(=O)(c1cncc(C(F)(F)F)c1)c1ccc2c(c1)OC1CNCCC21 (stereo not shown) [Example 459] | > 1000 nM

Same assay, conditions: membranes of CHO-K1 cells with recombinant human 5-HT6, 4 nM [3H]LSD; specific data; read-out: h5-HT6 (Ki)

SMILES | Ki
Cc1ccc(C)c(S(=O)(=O)Nc2ccc3c(c2)C2CCNCC2O3)c1 (stereo not shown) [Example 820, N-(1,2,3,4,4a,9a-hexahydro[1]benzofuro[2,3-c]pyridin-6-yl)-2,5-dimethylbenzenesulfonamide] | 472 nM
CC(C)N1CCC2c3ccc(S(=O)(=O)c4ccccc4)cc3OC2C1 (stereo not shown) [Example 608, 7-(phenylsulfonyl)-2-(propan-2-yl)-1,2,3,4,4a,9a-hexahydro[1]benzofuro[2,3-c]pyridine] | 49.4 nM
O=S(=O)(c1cccc(F)c1)c1ccc2c3c([nH]c2c1)C(C(F)(F)F)NCC3 (stereo not drawn) [Example 527, 7-[(3-fluorophenyl)sulfonyl]-1-(trifluoromethyl)-2,3,4,9-tetrahydro-1H-beta-carboline] | 93 nM
